Experimental data: patent publication US6420398B2, “Urea derivatives having nitrogen aromatic heterocycle” (Santen Pharmaceutical Co., Ltd., priority 1998, dated 2002)
Where a name gives a salt, the structure may show the parent alone.

What was measured:
[1] = test system: TNF-α production induced by lipopolysaccharide (LPS) stimulation; assay: Inhibitory effects on TNF-α production induced by LPS stimulation, in vivo test in rats (method of McGeehan et al.); conditions: Rattus norvegicus, 2 h; female rats; LPS from Salmonella s.c.; oral administration of 10 mg/kg test compound immediately after LPS; plasma TNF-α by ELISA two hours after LPS; read-out: TNF-α production inhibition rate (%)
Description: Inhibitory effects on TNF-α production induced by lipopolysaccharide (LPS) stimulation were studied by in vivo tests according to the method of McGeehan et al. (Nature, 370, 558-561 (1994)).
Female rats (five per group), body weight of about 200 g, about eight weeks old, were used as test animals. LPS from Salmonella was dissolved in physiological saline to prepare an LPS solution (1 mg/ml). Test compounds were dissolved or uniformly suspended in a 1% aqueous methylcellulose solution to give test compound preparation liquids.
The above-mentioned LPS solution (0.5 ml/kg) was subcutaneously administered to the rat. Immediately after the LPS administration, the test compound preparation liquid (5 ml/kg, containing 10 mg/kg test compound) was orally administered. Two hours after the LPS administration, blood was collected from abdominal aorta and was centrifuged at 4° C. and 3000 rpm for ten minutes. TNF-α levels in the obtained plasma were measured with a rat TNF-α -specific ELISA kit. TNF-α was not observed in the plasma with respect to an LPS-nonadministered group (control).
TNF-α production inhibition rates of the test compounds were determined by the following equation.
Inhibition rate (%)=[(A−B)/A]×100
A: TNF-α level in plasma of test compound-nonadministered group
B: TNF-α level in plasma of test compound-administered group

SMILES | inhibition at 10 mg/kg [1] | melting point
CC(=O)SCCN(CCC1CCCCC1)C(=O)NCCc1ccncc1 [Compound No. 4-2, 1-[2-(Acetylthio)ethyl]-1-(2-cyclohexylethyl)-3-[2-(4-pyridyl)ethyl]urea] | 72.5% | 
CC(=O)SCCN(CCC1CCCCC1)C(=O)NCCCc1ccncc1 [Compound No. 4-3, 1-[2-(Acetylthio)ethyl]-1-(2-cyclohexylethyl)-3-[3-(4-pyridyl)propyl]urea] | 80.8% | 70 °C
CC(=O)SCCN(CCc1ccccc1)C(=O)NCCCc1cccnc1 [Compound No. 4-15, 1-[2-(Acetylthio)ethyl]-1-phenethyl-3-[3-(3-pyridyl)propyl]urea] | 77.3% | 
CC(=O)SCCN(CCc1ccccc1)C(=O)NCCCc1ccncc1 [Compound No. 4-16, 1-[2-(Acetylthio)ethyl]-1-phenethyl-3-[3-(4-pyridyl)propyl]urea] | 77.2% | 
CC(=O)SCCN(CCCc1ccccc1)C(=O)NCCCc1ccncc1 [Compound No. 4-17, 1-[2-(Acetylthio)ethyl]-1-(3-phenylpropyl)-3-[3-(4-pyridyl)propyl]urea] | 70.6% | 
CC(=O)SCCN(CCc1ccc(F)cc1)C(=O)NCCCc1ccncc1 [Compound No. 4-18, 1-[2-(Acetylthio)ethyl]-1-(4-fluorophenethyl)-3-[3-(4-pyridyl)propyl]urea] | 64.2% | 
CSCCN(CCC1CCCCC1)C(=O)NCCCc1ccncc1 [Compound No. 5-1, 1-(2-Cyclohexylethyl)-1-[2-(methylthio)ethyl]-3-[3-(4-pyridyl)propyl]urea] | 74.9% | 
CSCCN(CCC1CCCCC1)C(=O)NCc1ccncc1 [Compound No. 5-2, 1 (2-Cyclohexylethyl)-1-[2-(methylthio)ethyl]-3-(4-pyridylmethyl)urea] | 81.2% | 
CC(=O)SCCN(CCC1CCCCC1)C(=O)NCc1ccncc1 [Compound No. 8-1, 1-[2-(Acetylthio)ethyl]-1-(2-cyclohexylethyl)-3-(4-pyridylmethyl)urea hydrochloride] | 80% | 
CC(=O)SCCN(CCC1CCCC1)C(=O)NCc1ccncc1 [Compound No. 8-3, 1-[2-(Acetylthio)ethyl]-1-(2-cyclopentylethyl)-3-(4-pyridylmethyl)urea hydrochloride] | 78.9% | 
CC(=O)SCCN(CCC12CC3CC(CC(C3)C1)C2)C(=O)NCc1ccncc1 [Compound No. 8-4, 1-[2-(Acetylthio)ethyl]-1-[2-(1-adamantyl)ethyl]-3-(4-pyridylmethyl)urea hydrochloride] | 81% | 
CC(=O)SCCN(CCC1=CCCCC1)C(=O)NCc1ccncc1 [Compound No. 8-10, 1-[2-(Acetylthio)ethyl]-1-[2-(1-cyclohexenyl)ethyl]-3-(4-pyridylmethyl)urea hydrochloride] | 69% | 
O=C(NCCCc1ccncc1)N(CCS)CCC1CCCCC1 [Compound No. 8-11, 1-(2-Cyclohexylethyl)-1-(2-mercaptoethyl)-3-[3-(4-pyridyl)propyl]urea hydrochloride] | 63.6% | 
